Results taken from patent US6008225A, “Derivatives of antibiotic GE2270 factors C2a, D2 and E” (BioSearch Italia, S.p.A., priority 1996, dated 1999).

What was measured:
[1] = test system: Staph. aureus Tour; experiment: MIC by microbroth dilution, Staph. aureus Tour; type: cell-based, Staphylococcus aureus; details: Staph. aureus Tour (code 165), 0.01% BSA, read 18-24 h
[2] = test system: Staph. aureus Smith; experiment: MIC by microbroth dilution, Staph. aureus Smith; type: cell-based, Staphylococcus aureus; details: Staph. aureus Smith (code 819); 0.01% BSA; inocula about 10^4 (1-4), about 5×10^5 cfu/ml (5, 6); 18-24 h
[3] = test system: Staph. haemolyticus clin. is.; experiment: MIC by microbroth dilution, Staph. haemolyticus; type: cell-based, Staphylococcus haemolyticus; details: Staph. haemolyticus clin. is. (code 602); 0.01% BSA; inocula about 10^4 (1-4), about 5×10^5 cfu/ml (5, 6); 18-24 h
[4] = test system: Strep. pyogenes C203; experiment: MIC by microbroth dilution, Strep. pyogenes; type: cell-based, Streptococcus pyogenes; details: Strep. pyogenes C203 (code 49); Todd Hewitt broth; 0.01% BSA; inocula about 10^4 (1-4), about 5×10^5 cfu/ml (5, 6); 18-24 h
[5] = test system: Strep. pneumoniae UC41; experiment: MIC by microbroth dilution, Strep. pneumoniae; type: cell-based, Streptococcus pneumoniae; details: Strep. pneumoniae UC41 (code 44); Todd Hewitt broth; 0.01% BSA; inocula about 10^4 (1-4), about 5×10^5 cfu/ml (5, 6); 18-24 h
[6] = test system: Enterococcus faecalis ATCC 6919; experiment: MIC by microbroth dilution, Enterococcus faecalis; type: cell-based; details: Enterococcus faecalis ATCC 6919 (code 149); 0.01% BSA; inocula about 10^4 (1-4), about 5×10^5 cfu/ml (5, 6); 18-24 h
[7] = test system: Clostridium perfringens ISS30543; type: cell-based; details: Clostridium perfringens ISS30543 (code 290); anaerobe, 48 h; 0.01% BSA; inocula about 10^5 (1-4), about 5×10^5 cfu/ml (5, 6)
[8] = test system: Propionibacterium acnes ATCC6919; experiment: MIC by microbroth dilution, Propionibacterium acnes; type: cell-based; details: Propionibacterium acnes ATCC6919 (code 1014); anaerobe, 48 h; 0.01% BSA; inocula about 10^5 (1-4), about 5×10^5 cfu/ml (5, 6)
[9] = test system: Bacteroides fragilis ATCC 25285; experiment: MIC by microbroth dilution, Bacteroides fragilis; type: cell-based; details: Bacteroides fragilis ATCC 25285 (code 1011); anaerobe, 48 h; 0.01% BSA; inocula about 10^5 (1-4), about 5×10^5 cfu/ml (5, 6)
[10] = test system: Neisseria gonorrhoeae ISM 68/126; experiment: MIC by microbroth dilution, Neisseria gonorrhoeae; type: cell-based; details: Neisseria gonorrhoeae ISM 68/126 (code 997); 5% CO2, 48 h; 0.01% BSA; inocula about 10^4 (1-4), about 5×10^5 cfu/ml (5, 6)
[11] = test system: Haemophilus influenzae type b ATCC19418; experiment: MIC by microbroth dilution, Haemophilus influenzae; type: cell-based; details: Haemophilus influenzae type b ATCC19418 (code 970); 5% CO2, 48 h; 0.01% BSA; inocula about 10^4 (1-4), about 5×10^5 cfu/ml (5, 6)
[12] = test system: Escherichia coli SKF 12140; experiment: MIC by microbroth dilution, Escherichia coli; type: cell-based; details: Escherichia coli SKF 12140 (code 47); 0.01% BSA; inocula about 10^4 (1-4), about 5×10^5 cfu/ml (5, 6); 18-24 h
[13] = test system: Pseudomonas aeruginosa ATCC10145; experiment: MIC by microbroth dilution, Pseudomonas aeruginosa; type: cell-based; details: Pseudomonas aeruginosa ATCC10145 (code 4); 0.01% BSA; inocula about 10^4 (1-4), about 5×10^5 cfu/ml (5, 6); 18-24 h
[14] = test system: Proteus vulgaris X19H ATCC881; experiment: MIC by microbroth dilution, Proteus vulgaris; type: cell-based; details: Proteus vulgaris X19H ATCC881 (code 79); 0.01% BSA; inocula about 10^4 (1-4), about 5×10^5 cfu/ml (5, 6); 18-24 h
[15] = test system: Klebsiella pneumoniae ISM; experiment: MIC by microbroth dilution, Klebsiella pneumoniae; type: cell-based; details: Klebsiella pneumoniae ISM (code 142); 0.01% BSA; inocula about 10^4 (1-4), about 5×10^5 cfu/ml (6); 18-24 h
[16] = test system: Staph. epidermidis ATCC 12228; experiment: MIC by microbroth dilution, Staph. epidermidis; type: cell-based, Staphylococcus epidermidis; details: Staph. epidermidis ATCC 12228 (code 147); 0.01% BSA; inocula about 10^4 (1-4), about 5×10^5 cfu/ml (5, 6); 18-24 h
[17] = inocula about 10^4 cfu/ml (compounds 1-4), about 5×10^5 cfu/ml (5, 6)

| SMILES | MIC of the compounds ([1]; 10^6 cfu/ml) | MIC of the compounds ([1]; 30% b.s.) | MIC of the compounds [1, 17] | MIC of the compounds [2] | MIC of the compounds [3] | MIC of the compounds [4] | MIC of the compounds [5] | MIC of the compounds [6] | MIC of the compounds [7] | MIC of the compounds [8] | MIC of the compounds [9] | MIC of the compounds [10] | MIC of the compounds [11] | MIC of the compounds [12] | MIC of the compounds [13] | MIC of the compounds [14] | MIC of the compounds [15] | MIC of the compounds [16] |
| --- | --- | --- | --- | --- | --- | --- | --- | --- | --- | --- | --- | --- | --- | --- | --- | --- | --- | --- |
| CCN(CC)Cc1sc2nc1C(=O)NCC(=O)NC(C(O)c1ccccc1)c1nc(cs1)-c1nc(cs1)-c1nc(-c3nc(C4=NC(C(=O)N5CCCC5C(N)=O)CO4)cs3)ccc1-c1nc(cs1)C(=O)NC(CC(=O)NC)c1nc(c(C)s1)C(=O)NC2C(C)C (stereo not drawn) [Compound 1] | 0.25 µg/mL | 0.5 µg/mL | 0.13 µg/mL | 0.13 µg/mL | 0.13 µg/mL | 4 µg/mL | 1 µg/mL | 0.06 µg/mL | 0.13 µg/mL | 0.03 µg/mL | 64 µg/mL | > 128 µg/mL | > 128 µg/mL | > 128 µg/mL | > 128 µg/mL | > 128 µg/mL | > 128 µg/mL | – |
| CNC(=O)CC1NC(=O)c2csc(n2)-c2ccc(-c3nc(C4=NC(C(=O)N5CCCC5C(N)=O)CO4)cs3)nc2-c2csc(n2)-c2csc(n2)C(C(O)c2ccccc2)NC(=O)CNC(=O)c2nc(sc2CN(C)C)C(C(C)C)NC(=O)c2nc1sc2C (stereo not drawn) [Compound 2] | 0.13 µg/mL | 0.13 µg/mL | 0.13 µg/mL | 0.13 µg/mL | 0.25 µg/mL | 0.5 µg/mL | 0.13 µg/mL | 0.06 µg/mL | 0.06 µg/mL | 0.06 µg/mL | 128 µg/mL | 4 µg/mL | 8 µg/mL | > 128 µg/mL | > 128 µg/mL | > 128 µg/mL | > 128 µg/mL | 0.13 µg/mL |
| CNC(=O)C[C@@H]1NC(=O)c2csc(n2)-c2ccc(-c3nc(C4=N[C@H](C(=O)N5CCC[C@H]5C(N)=O)CO4)cs3)nc2-c2csc(n2)-c2csc(n2)C(C(O)c2ccccc2)NC(=O)CNC(=O)c2nc(sc2CN(C)CCN(C)C)[C@H](C(C)C)NC(=O)c2nc1sc2C (stereo partly drawn) [Compound 3] | 4 µg/mL | 1 µg/mL | 1 µg/mL | 1 µg/mL | 8 µg/mL | 2 µg/mL | 1 µg/mL | 1 µg/mL | 4 µg/mL | 0.5 µg/mL | > 128 µg/mL | > 128 µg/mL | > 128 µg/mL | > 128 µg/mL | > 128 µg/mL | > 128 µg/mL | > 128 µg/mL | 8 µg/mL |
| CCSCc1sc2nc1C(=O)NCC(=O)NC(C(O)c1ccccc1)c1nc(cs1)-c1nc(cs1)-c1nc(-c3nc(C4=N[C@H](C(=O)N5CCC[C@H]5C(N)=O)CO4)cs3)ccc1-c1nc(cs1)C(=O)N[C@@H](CC(=O)NC)c1nc(c(C)s1)C(=O)N[C@H]2C(C)C (stereo partly drawn) [Compound 4] | – | – | 0.13 µg/mL | 0.25 µg/mL | 8 µg/mL | 64 µg/mL | 0.5 µg/mL | 0.06 µg/mL | 0.016 µg/mL | 0.004 µg/mL | > 128 µg/mL | > 128 µg/mL | > 128 µg/mL | > 128 µg/mL | > 128 µg/mL | > 128 µg/mL | > 128 µg/mL | 4 µg/mL |
| CCN(CC)CCNC(=O)[C@@H]1CCCN1C(=O)[C@@H]1COC(c2csc(-c3ccc4c(n3)-c3csc(n3)-c3csc(n3)C(C(O)c3ccccc3)NC(=O)CNC(=O)c3nc(sc3CO)[C@H](C(C)C)NC(=O)c3nc(sc3C)[C@H](CC(=O)NC)NC(=O)c3csc-4n3)n2)=N1 (stereo partly drawn) [Compound 5] | 0.13 µg/mL | 0.25 µg/mL | 0.06 µg/mL | 0.13 µg/mL | 0.13 µg/mL | 0.13 µg/mL | 0.13 µg/mL | 0.06 µg/mL | 0.06 µg/mL | 0.03 µg/mL | 32 µg/mL | 32 µg/mL | 8 µg/mL | > 128 µg/mL | > 128 µg/mL | > 128 µg/mL | – | 0.13 µg/mL |
| CCN(CC)CCNC(=O)[C@@H]1CCCN1C(=O)[C@@H]1COC(c2csc(-c3ccc4c(n3)-c3csc(n3)-c3csc(n3)C(C(O)c3ccccc3)NC(=O)CNC(=O)c3nc(sc3CN(C)C)[C@H](C(C)C)NC(=O)c3nc(sc3C)[C@H](CC(=O)NC)NC(=O)c3csc-4n3)n2)=N1 (stereo partly drawn) [Compound 6] | – | – | 0.13 µg/mL | 0.13 µg/mL | 0.5 µg/mL | 0.13 µg/mL | 0.13 µg/mL | 0.13 µg/mL | 0.06 µg/mL | 16 µg/mL | 64 µg/mL | 16 µg/mL | > 128 µg/mL | > 128 µg/mL | > 128 µg/mL | > 128 µg/mL | > 128 µg/mL | 0.5 µg/mL |
